# Assay results: patent US9062284B2, “Uses and detection of herbicide resistance genes for resistance to aryloxyalkanoate herbicides” (Dow ArgoSciences LLC, priority 2007, dated 2015)
# Like-named read-outs stand apart in the source and are kept apart here.
# What was measured:
# [1] = system: AAD-2 (v1) transformed T1 Arabidopsis; details: 200 g ae/ha 2,4-D; see PCT/US2005/014737; cited from earlier work
# [2] = system: AAD-13 (v1) transformed T1 Arabidopsis; test: Postemergence herbicide response of AAD-13 (v1) T1 Arabidopsis; assay type: in vivo, Arabidopsis thaliana; details: 2,240 g ae/ha 2,4-D
# Description: Seven days after planting (DAP) and again 11 DAP, T1 plants (cotyledon and 2-4-lf stage, respectively) were sprayed with a 0.2% solution of Liberty herbicide (200 g ai/L glufosinate, Bayer Crop Sciences, Kansas City, Mo.) at a spray volume of 10 ml/tray (703 L/ha) using a DeVilbiss compressed air spray tip to deliver an effective rate of 280 g ai/ha glufosinate per application. Survivors (plants actively growing) were identified 4-7 days after the final spraying and transplanted individually into 3-inch pots prepared with potting media (Metro Mix 360). Transplanted plants were covered with humidity domes for 3-4 days and placed in a 22° C. growth chamber as before or moved to directly to the greenhouse. Domes were subsequently removed and plants reared in the greenhouse (22±5° C., 50±30% RH, 14 h light:10 dark, minimum 500 μE/m^2s^1 natural+supplemental light) at least 1 day prior to testing for the ability of AAD-13 (v1) to provide phenoxy auxin herbicide resistance.
# T1 plants were then randomly assigned to various rates of 2,4-D. For Arabidopsis, 50 g ae/ha 2,4-D is an effective dose to distinguish sensitive plants from ones with meaningful levels of resistance. Elevated rates were also applied to determine relative levels of resistance (280, 560, 1120, or 2240 g ae/ha). Tables 11 and 12 show comparisons drawn to an aryloxyalkanoate herbicide resistance gene (AAD-12 (v1)) previously described in PCT/US2006/042133.
# All auxin herbicide applications were made using the DeVilbiss sprayer as described above to apply 703 L/ha spray volume (0.4 ml solution/3-inch pot) or applied by track sprayer in a 187 L/ha spray volume. 2,4-D used was either technical grade (Sigma, St. Louis, Mo.) dissolved in DMSO and diluted in water (<1% DMSO final concentration) or the commercial dimethylamine salt formulation (456 g ae/L, NuFarm, St Joseph, Mo.). Dichlorprop used was commercial grade formulated as potassium salt of R-dichlorprop (600 g ai/L, AH Marks). As herbicide rates increased beyond 800 g ae/ha, the pH of the spray solution became exceedingly acidic, burning the leaves of young, tender Arabidopsis plants and complicating evaluation of the primary effects of the herbicides.
# The first Arabidopsis transformations were conducted using AAD-13 (v1) (plant optimized gene). T1 transformants were first selected from the background of untransformed seed using a glufosinate selection scheme. Over 160,000 T1 seed were screened and 238 glufosinate resistant plants were identified (PAT gene), equating to a transformation/selection frequency of 0.15% which lies in the normal range of selection frequency of constructs where PAT+Liberty are used for selection. T1 plants selected above were subsequently transplanted to individual pots and sprayed with various rates of commercial aryloxyalkanoate herbicides. Table 11 compares the response of AAD-13 (v1) and control genes to impart 2,4-D resistance to Arabidopsis T1 transformants. Response is presented in terms of % visual injury 2 WAT. […] An arithmetic mean and standard deviation is presented for each treatment. The range in individual response is also indicated in the last column for each rate and transformation. PAT/Cry1F-transformed Arabidopsis served as an auxin-sensitive transformed control. The AAD-13 (v1) gene imparted herbicide resistance to individual T1 Arabidopsis plants. Within a given treatment, the level of plant response varied greatly and can be attributed to the fact each plant represents an independent transformation event. Of important note, at each 2,4-D rate tested, there were individuals that were unaffected while some were severely affected. […] At high rates the spray solution becomes highly acidic unless buffered therefore some of the injury may be attributed to the acidity of the spray solution. Arabidopsis grown mostly in the growth chamber has a very thin cuticle and severe burning effects can complicate testing at these elevated rates. […]
# AAD-13 (v2) = biological target: T1, AAD-13 (v2) (Sphingobium herbicidovorans, UniProt Q700X4); assay type: biochemical
# T1 construct: His tag (C); made in house; host or cells: E. coli BL-21, pET-26b(+)
# From the text: In order to test a broad range of substrates, the production of succinate from the breakdown of α-ketoglutarate was detected spectrophotometricly using a protocol based on the method of Luo et. al. (2006) (Anal. Biochem. 353: 69-74). As depicted in FIG. 3, the concomitant breakdown of α-ketoglutarate and the substrate of interest via AAD-13, results in the production of succinate. Succinate is further modified to succinyl-CoA by succinyl-CoA synthetase which consumes ATP and produces ADP. ADP is then consumed by the commonly employed pyruvate kinase/lactate dehydrogenase enzymatic coupling system (Sigma P0294). The resulting conversion of NADH to NAD is monitored spectrophotometrically at 340 nm.
# Identification of AAD-13 (v2) substrates in vitro was based on enzymatic activity detected during continuous spectrophotometric monitoring of a 0.2 mL reaction volume in a 96 well microtiter plate. Reaction conditions were as follows: 100 mM MOPS pH 7.0, 0.4 mM NADH, 0.4 mM ATP, 0.4 mM CoA, 1 mM PEP, 10 mM MgCl2, 0.1 mM […] (solubilized in HCl), and 0.1 mM ascorbate, 1 mM α-ketoglutarate and sufficient AAD-13 (v2) to produce an observable rate in the presence of 2,4-D. Coupling enzymes (SCS/PK/LDH) were adjusted by batch to ensure adequate coupling, and potential substrates were generally assayed at 1 mM. Alterations in substrate concentrations were made as needed to adjust for solubility. Reactions were initiated by either the addition of AAD-13 (v2) or potential substrate. The rate of substrate independent conversion of α-ketoglutarate to succinate by AAD was monitored under the above assay conditions and subtracted from the observed reaction rates. […] Additionally, propionate compounds were checked for pyruvate contamination by spectrophotometrically monitoring the consumption of NADH in the presence of compound and PK/LDH.
# Reaction rates are reported as a percentage of the 2,4-D reaction rate obtained in the same sample set. […] It should be noted that faster rates can be more difficult to accurately compare depending on the percentage of available substrate consumed. […] As a result, highly efficient substrates will be properly grouped when compared to low efficiency substrates. Within the grouping of highly efficient substrates however, compounds may not be quantitatively separated by a screen using single rates of substrate and AAD.
# AAD-13 = biological target: T2, AAD-13 (Sphingobium herbicidovorans, UniProt Q700X4); details: CNPP as substrate, pH 6.75
# T2 sequence (Q700X4 with tags, fused parts or gaps): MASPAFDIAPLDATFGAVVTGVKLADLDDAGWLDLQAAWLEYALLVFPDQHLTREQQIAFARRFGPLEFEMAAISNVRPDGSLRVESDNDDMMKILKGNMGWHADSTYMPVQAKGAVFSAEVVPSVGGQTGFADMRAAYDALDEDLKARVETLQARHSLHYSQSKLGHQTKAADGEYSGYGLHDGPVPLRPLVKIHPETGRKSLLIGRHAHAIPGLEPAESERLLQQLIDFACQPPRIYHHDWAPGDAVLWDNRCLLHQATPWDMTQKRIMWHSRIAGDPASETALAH
# Description: A convenient assay of AAD-13 was devised using 2-(2-chloro,4-nitrophenoxy)propionate (CNPP) as substrate. Cleavage of CNPP by AAD-13 will release 2-chloro,4-nitrophenol. This phenol has a bright yellow absorbance at 410 nm at pH 7 enabling the reaction to be followed continuously or by endpoint analysis. […] Microplate-based spectrophotometric assays were performed in a total volume of 0.2 ml 20 mM MOPS pH 6.75 containing 200 μM NH4FeSO4, 200 μM sodium ascorbate, 1 mM α-ketoglutarate, the appropriate amount of CNPP (added from a 10 mM stock made up in DMSO), and enzyme. Assays are initiated by addition of CNPP, enzyme, or α-ketoglutarate at time zero and the increase in absorbance followed for 10 min at 410 nm in a microplate reader. The first 2 min of the reaction will be used to determine initial rates.
# [3] = substrate 1 mM, rate as percentage of 2,4-D rate in same sample set, propionate rates divided by two
# [4] = substrate 0.5 mM (asterisk), rate as percentage of 2,4-D rate
Compound,% of 24D activity (AAD-13 (v2); [3]),other results
"O=C(O)COc1ccc(Cl)cc1Cl [2,4-D, 2,4-dichlorophenoxyacetic acid]",100%,overall population injury [1]: about 83%; population injury average [2]: about 15%
Nc1c(Cl)ccc(OCC(=O)O)c1Cl [3-amino 24D],151%,–
O=C(O)CCCOc1ccc(Cl)cc1Cl [24DB],2%,–
CC(Oc1ccc([N+](=O)[O-])cc1Cl)C(=O)O (centres unmarked) [CNPP],–,Km (AAD-13): 31 ± 5.5 µM; kcat (AAD-13): 0.27 ± 0.0132 s⁻¹
Cc1cc(Cl)ccc1OC(C)C(=O)O (centres unmarked) [Mecoprop],169%,–
C[C@@H](Oc1ccc(Oc2nc3ccc(Cl)cc3o2)cc1)C(=O)O [R-fenoxaprop],2%,–
C[C@H](Oc1ccc(Cl)cc1Cl)C(=O)O [S-dichlorprop],233%,–
CC(Oc1nc(F)c(Cl)c(N)c1Cl)C(=O)O (stereo not drawn) [alpha methyl floroxypyr],43%,–
CC(Oc1ccc(C(=O)c2ccc(Cl)cc2)cc1)C(=O)O (centres unmarked) [compound 8563],64%,–
CC(Oc1ncc(Cl)cc1Cl)C(=O)O (centres unmarked) [compound 66357],24%,–
CC(Oc1ccc(C(=O)c2ccccc2)cc1)C(=O)O (centres unmarked) [compound 66732],>100%,–
CC(Oc1ccc(F)cc1Cl)C(=O)O (centres unmarked) [compound 83293],106%,–
CC(Oc1nc(F)c(Cl)cc1Cl)C(=O)O (centres unmarked) [compound 91767],88%,–
O=C(O)COCc1ccccc1 [compound 93116],128%,–
O=C(O)COc1nc(F)c(Cl)cc1Cl [compound 93833],33%,–
CC(OCc1ccccc1)C(=O)O (centres unmarked) [compound 118942],46%,–
O=C(O)COc1ccc(F)cc1Cl [compound 124988],44%,–
O=C(O)/C=C/c1ccccc1Cl [compound 187507],10%,–
CCCC(Oc1cc(Cl)c(Cl)cc1Cl)C(=O)O (centres unmarked) [compound 188495],19%,–

Compound,% of 24D activity (AAD-13 (v2); [3]),other results
CCCCOC(C)C(=O)O (centres unmarked) [compound 191716],66%,–
O=C(O)COc1ccc(C(=O)c2ccccc2)cc1 [compound 193908],56%,–
O=C(O)c1cc2cc(Br)cc(Br)c2o1 [compound 198167],Not Detected,–
O=C(O)COc1ccc(Cl)c2cccnc12 [compound 204558],–,% of 24D activity (AAD-13 (v2); [4]): Not Detected
O=C(O)c1cc2cc([N+](=O)[O-])ccc2o1 [compound 238166],–,% of 24D activity (AAD-13 (v2); [4]): Not Detected
O=C(O)COC(c1ccccc1)C(F)(F)F (centres unmarked) [compound 470901],30%,–
O=C(O)COCc1ccc(Cl)cc1 [compound 475726],112%,–
C=C(C)CCOCC(=O)O [compound 571320],39%,–
CC(Oc1nn(-c2ccccc2)c(-c2ccccc2)c1Cl)C(=O)O (centres unmarked) [compound 657338],5%,–
CC(Oc1nn(-c2ccccc2)c(-c2ccccc2)c1Br)C(=O)O (centres unmarked) [compound 657339],5%,–
O=C(O)COc1ccc(C(=O)c2ccc(Cl)cc2)c(Cl)c1Cl [compound 761310],–,% of 24D activity (AAD-13 (v2); [4]): Not Detected
O=C(O)c1cc2cc(Cl)cc(Cl)c2o1 [compound 11077344],–,% of 24D activity (AAD-13 (v2); [4]): Not Detected
O=C(O)c1cc2cc(Cl)ccc2o1 [compound 11077347],–,% of 24D activity (AAD-13 (v2); [4]): Not Detected
CC(Oc1ccc(Cl)c(N)c1Cl)C(=O)O (centres unmarked) [compound 11113675],113%,–
O=C(O)COc1cc(N2C(=O)C3=C(CCCC3)C2=O)c(F)cc1Cl [compound 11213586],2%,–
O=C(O)/C=C\c1ccccc1Cl [compound 11453845],13%,–
CC(Oc1ccc(Oc2ccc(Cl)cc2Cl)cc1)C(=O)O (centres unmarked) [diclofop],>100%,–
CC(Oc1ccc(Oc2ccc(C(F)(F)F)cn2)cc1)C(=O)O (centres unmarked) [fluazifiop],~50%,–
"CC(Oc1ccc(Cl)cc1Cl)C(=O)O (centres unmarked) [r,s dichlorprop, dichlorprop]",195%,–
